For orientation: IC50 means the concentration needed to halve the response being measured. One may read the EC50 as the concentration needed to bring the measured effect to its halfway point. In general, Emax refers to the greatest response seen or fitted, relative to the assay's reference. Broadly, the inhibition is the relative decrease from the control value, in per cent. As usually defined, the Ki is a dissociation constant, usually derived from enzyme kinetics or from competition with a known ligand.

Read-outs that look alike come from different tables or passages of the source.

Data on 6 compounds can be found in article PMC11345774, “Discovery of Novel, Selective, and Nonbasic Agonists for the Kappa-Opioid Receptor Determined by Salvinorin A-Based Virtual Screening” (Journal of Medicinal Chemistry, 2024).

The target of assay [1] is T1, human KOR (Homo sapiens, UniProt P41145). Kind of assay: [35S]GTPγS binding assay, antagonist study: inhibition of U69,593-induced stimulation, CHO-hKOR membranes. The note with it: U69,593 1 μM. It is filed as biochemical. (In general: GTPγS is a poorly hydrolysed GTP analogue; its binding reports G protein activation.)
For a further assay, the target named is T2, human MOR (Homo sapiens, UniProt P35372).
T2 construct: expressed in transfected cells; host or cells: CHO cells (CHO-hMOR), gift of Lawrence Toll, SRI International
Format: binding.

The target in assay [2] is T1, human KOR. Nature of the assay: [35S]GTPγS binding assay (G protein activation), CHO-hKOR cell membranes. It is filed as biochemical. The settings on record: for Emax: read-out: G protein activation Emax.
In assay [3] the target is T1, human KOR. Kind of assay: [35S]GTPγS binding assay, antagonist study: inhibition of U69,593-induced stimulation, CHO-hKOR membranes. Format: biochemical. The settings on record: U69,593 1 μM; read-out: inhibition of U69,593-induced stimulation of [35S]GTPγS binding, Inhibition.
In the next assay the target is T3, human DOR (Homo sapiens, UniProt P41143).
T3 construct: expressed in transfected cells; host or cells: CHO cells (CHO-hDOR), gift of Lawrence Toll, SRI International
Nature of the assay: Radioligand competitive binding assay with [3H]DPDPE, membranes from CHO-hDOR cells. The settings on record: compound at 10 μM.

Assay [4] deals with T1, human KOR. Nature of the assay: Radioligand competitive binding assay with [3H]U69,593, membranes from CHO-hKOR cells. The note with it: for inhibition at 10 µM: read-out: inhibition of [3H]U69,593 binding at the KOR; for Ki: read-out: binding affinity Ki.
For assay [5], the target named is T1, human KOR. Kind of assay: PathHunter β-arrestin2 recruitment assay, U2OS-hKOR-β-arrestin2 cells. Format: cell-based. The settings on record: for EC50: U2OS cells coexpressing hKOR and β-arrestin2, tested up to 10 μM, read-out: β-arrestin2 recruitment EC50 (dash symbol). On the technique in general: Recruitment of arrestin is a read-out of receptor activation apart from second messengers.

A further assay concerns KOR. The note with it: cited from earlier work.
Assay [6] addresses T1, human KOR. Nature of the assay: [35S]GTPγS binding assay, antagonist study: inhibition of U69,593-induced stimulation, CHO-hKOR membranes. It is filed as biochemical. Also on record: dose or concentration left out as unconfirmed. The settings on record: read-out: inhibition of U69,593-induced stimulation of [35S]GTPγS binding, Inhibition.

Compound `Cc1cc2n(n1)C1(CCN(C(=O)c3ccc(Cl)cc3)CC1)CC(=O)N2CC1CC1` [SalA-VS-07] showed an IC50 on human KOR [1] of 1.27 ± 0.334 µM. Besides, the “binding at the MOR” value at human MOR was “no substantial binding”. At human KOR [2], this compound registered an EC50 of 0.181 ± 0.049 µM. The maximal response (Emax) on human KOR [2] (relative to maximal effect of U69,593 (as 100%)) was determined as 48 ± 7%. Also, on human KOR [3], the inhibition was 52 ± 4%. The “binding at the DOR” value on human DOR is “no substantial binding”. Also, on human KOR [4] (compound at 10 μM), the inhibition at 10 µM was greater than 50%. On human KOR [4], the Ki stood at 0.423 ± 0.097 µM. Further, at human KOR [5], the “β-arrestin2 recruitment upon activation of the KOR (in words)” value was “failed to induce β-arrestin2 recruitment” and the EC50 was greater than 10 µM.
For `Cc1cc2n(n1)C1(CCN(C(=O)c3ccncc3)CC1)CC(=O)N2CC1CC1` [SalA-VS-09], the “KOR activity (in words)” value on human KOR [4] (binding screen at 10 μM) is “inactive”.
Turning to `COC(=O)[C@@H]1C[C@H](O)C(=O)[C@H]2[C@@]1(C)CC[C@H]1C(=O)O[C@H](c3ccoc3)C[C@]21C` [SalB, Salvinorin B], the “activity at the KOR (in words)” value in the assay with KOR was “inactive”.
Turning to `CCO[C@@]12Cc3c([nH]c4ccccc34)[C@]3(C)Oc4c(O)ccc5c4[C@@]31CCN(CC1CC1)C2C5` [HS378, reference compound], at human DOR, the “binding at the DOR” value is “significant binding”.
As to `Cc1cc2n(n1)C1(CCN(C(=O)c3cccc(F)c3)CC1)CC(=O)N2CC1CC1` [SalA-VS-08], at human MOR, the “binding at the MOR” value was “no substantial binding”. On human KOR [2], the concentration for a half-maximal effect (EC50) came out at 0.854 ± 0.06 µM, the “lower agonist potency at the KOR compared to SalA-VS-07” value stood at 5 fold and the maximal effect (Emax) worked out at 108 ± 8%. Moreover, the “binding at the DOR” value at human DOR is reported as “no substantial binding”. Moreover, at human KOR [4], the “increased affinity at the KOR than SalA-VS-07” value is given as “about 6 fold”, the Ki came to 0.0685 ± 0.0055 µM and the inhibition at 10 µM is greater than 50%. Besides, on human KOR [5], the “β-arrestin2 recruitment upon activation of the KOR (in words)” value is recorded as “failed to induce β-arrestin2 recruitment” and the EC50 is greater than 10 µM.
Regarding `Oc1ccc2c3c1O[C@H]1c4[nH]c5c(c4C[C@@]4(O)[C@@H](C2)N(CC2CC2)CC[C@]314)C[C@@]1(O)[C@H]2Cc3ccc(O)c4c3[C@@]1(CCN2CC1CC1)[C@H]5O4` [nor-BNI, nor-binaltorphimine, reference compound], the inhibition on human KOR [6] worked out at 92 ± 6%.
